This is an account of results in patent US12391691B2, “Synthesis of key intermediate of KRAS G12C inhibitor compound” (Amgen Inc., priority 2018, dated 2025).

Structures are written as SMILES. Values after ≈ are worked out from the molar mass of the structure shown.

One data set can be described thus: physchem. Particulars: organic solvent or mixture, thermodynamic from solid.
Data set [1] in a line: 5-day equilibrium solubility of M/P-Dione (ternary phase diagram). Conditions: 2-MeTHF/n-heptane (1.4:1, v/v), RT, 5 days; for Solid XRPD: residual solid.
The mark [2] stands for this setting: #3: 20.2 mg M-Dione + 119.3 mg P-Dione.
Setting [3] is: #4: 89.8 mg M-Dione + 90.3 mg P-Dione.
The mark [4] stands for this setting: #5: 121.1 mg M-Dione + 40.7 mg P-Dione.
Where [5] appears, read: #6: 90.2 mg M-Dione + 19.5 mg P-Dione.
[6] abbreviates: #7: 41.6 mg M-Dione + 39.9 mg P-Dione.
[7] abbreviates: #8: 39.2 mg M-Dione + 120.3 mg P-Dione.
Where [8] appears, read: #9: 119.1 mg M-Dione + 20.5 mg P-Dione.

A word on the solubility: it is how much of the substance goes into solution per volume. As for `O=C(O[C@H](C(=O)O)[C@H](OC(=O)c1ccccc1)C(=O)O)c1ccccc1` [DBTA, (+)-2,3-dibenzoyl-D-tartaric acid], the solubility at 5 days in the data set “physchem” (20 °C) was 99.1 mg/mL (≈ 277 mM); in “physchem” (30 °C) it was 100 mg/mL (≈ 280 mM); in “physchem” (40 °C), 98.9 mg/mL (≈ 276 mM); in the data set “physchem” (50 °C), 88 mg/mL (≈ 246 mM); in the data set “physchem” (60 °C) it was 105 mg/mL (≈ 293 mM); in “physchem” (65 °C), 96.1 mg/mL (≈ 268 mM). For the same compound, in the data set “physchem”, the solubility at 5 days was ~100 mg/mL (≈ 279 mM).
In the case of `Cc1ccnc(C(C)C)c1-n1c(=O)[nH]c(=O)c2cc(F)c(Cl)nc21` [M/P-Dione], the Solid de in data set [1] (setting [2]) is −69.2%; in data set [1] (setting [3]) it was 0.6%; in data set [1] (setting [4]) it was 27.0%; in data set [1] (setting [5]), 35.0%; in data set [1] (setting [6]), 1.4%; in data set [1] (setting [7]) it was −39.1%. The Solid de in data set [1] (setting [8]) was determined as 54.9%. Further, the “Supernatant [M]/[P]” value in data set [1] (setting [2]) worked out at 0.2; in data set [1] (setting [3]), 0.9; in data set [1] (setting [4]) it was 33.4; in data set [1] (setting [5]), 37.6; in data set [1] (setting [6]) it was 1.1; in data set [1] (setting [7]), 0.2. Further, in data set [1] (setting [8]), the “Supernatant [M]/[P]” value is on record as 34.5. The Supernatant de in data set [1] (setting [2]) is given as −73.6%; in data set [1] (setting [3]), −3.9%; in data set [1] (setting [4]) it was 94.2%; in data set [1] (setting [5]), 94.8%; in data set [1] (setting [6]), 4.4%; in data set [1] (setting [7]) it was −72.8%. In addition, the Supernatant de in data set [1] (setting [8]) was determined as 94.4%. Also, the “Solid XRPD” value in data set [1] (setting [2]) was “A + RD”; in data set [1] (setting [4]), “A + RC”; in data set [1] (setting [5]), “A + RC”; in data set [1] (setting [7]) it was “A + RD”; in data set [1] (setting [8]), “A + RC”.
